Measurements from patent publication US20240165082A1, “ORALLY ADMINISTERED COMPOSITIONS FOR CANCER TREATMENT” (priority 2021, published 2024).

Experiments:
in vitro = details: human, pH 7.4
Experimental: Phosphate-buffered saline (PBS, Cat. #10010 from ThermoFisher Scientific, Waltham, MA, USA) was adjusted to pH 7.4 and used as the receiver buffer. […] Tissues were received and stored at 4° C. until use. The tissue inserts were transferred to plates containing MATTEK SMI-100 culture medium using sterile technique and placed in a humidified incubator (37±1° C., 5% CO2) overnight for recovery prior to use, according to MATTEK protocols.
The control was PBS, pH 7.4 buffer for baseline endogenous histamine. Reference B was histamine α,α,β,β-d4 dihydrochloride (1 mg/mL) in PBS, pH 7.4. Reference A was a 300 μL dose added to the apical side of the tissue. […] In each trial, a 100 μL sample was immediately collected as the 0-minute donor sample and was not replenished. The pharmaceutical composition, the control, and Reference B were dosed with 200 μL, and 10 μL donor samples and collected at each time point (0, 15, 30, 60, and 120 minutes) without replacement. Six replicates of each treatment were conducted. […] The assay plates were transferred to a humidified incubator (37±1° C., 5% CO2) between sampling time points. […] Upon completion of the study, all samples were stored at −80° C. until analysis by LC-MS/MS. […]
The cumulative receiver concentration of each compound at each time point (Cc) was calculated as the sum of the measured concentration at that time point (Cm) and 0.2/5 of the measured concentrations at the previous time points (a 0.2 mL receiver sample out of the 5 mL total receiver volume was withdrawn and replaced at each time point, except for the final time point which was not replaced).
The Papp for each compound was calculated as follows: Papp=(dCr/dt)×Vr/(A×Cn), where dCr/dt is the slope of the cumulative receiver concentration (in μM) vs. time (t); Vr is the volume of the receiver compartment (5 cm^3); A is the exposed surface area for permeation (0.6 cm^2); and Cn is the nominal concentration in the donor compartment (in μM).
The recovery (%) at the final timepoint for histamine was calculated as follows: Recovery=100×((Vr120×Cr^final)+(Vd^initial×Cd^initial)+(Vd^15×Cd^15)+(Vd^30×Cd^30)+(Vd^60×Cd^60)+(Vd^final×Cd^final))/(Vd×Cn).
The flux was calculated using the following equation: Flux(overall)=dCc/dt×Vr/A; where dCc/dt is the slope of the cumulative receiver concentration (in μM) vs. time (t); Vr is the volume of the receiver compartment (in cm^3); t is the duration of the flux period in the linear range (in minutes); and A is the diffusional surface area of the exposed tissue surface (0.6 cm^2).

[1] = oral administration; inferred from Papp of Example 12
Text: Previous studies of the drug permeability data in Caco-2 cells for predicting human drug absorption data plotted apparent permeability (Papp) values against the drug fraction absorbed in humans expressed as a percentage of the administered dose (FA). […] (Turco, et al. Toxicology in Vitro, 2010, 13-20).

recovery at 120 min (in vitro) [%]	Papp A→B at 120 min (in vitro) [×10⁻⁶ cm/s]	Papp A→B at 120 min, 89969 μM (in vitro) [×10⁻⁶ cm/s]	absorbed in the small intestine, amount of the administered dosage [1]	Structure (SMILES)
89.1 ± 5.2	–	–	–	CC(C)NCC(O)COc1ccc(CC(N)=O)cc1 (centres unmarked) [atenolol]
93.6	18.7 ± 1.5	18.7 ± 1.5	greater than 85%	Cl.Cl.NCCc1c[nH]cn1 [histamine dihydrochloride]
